Measurements published in patent US20250066290A1, “DHODH INHIBITORS CONTAINING A CARBOXYLIC ACID BIOISOSTERE” (IMMUNIC AG, priority 2021, published 2025).
Where two headings read alike, the source gives them in different places.

What was measured:
[1] = biological target: N-terminally truncated recombinant hDHODH enzyme (Homo sapiens, UniProt Q02127); assay: biochemical; format: biochemical
Protocol: Briefly, the hDHODH concentration was adjusted in a way that an average slope of approximately 0.2 AU/min served as the positive control (e.g. without inhibitor). The standard assay mixture contained 60 μM 2,6-dichloroindophenol, 50 μM decylubiquinone and 100 μM dihydroorotate. The hDHODH enzyme with or without at least six different concentrations of the compounds was added and measurements were performed in 50 mM TrisHCl, 150 mM KCl and 0.1% Triton X-100 at pH 8.0 and at 30° C. The reaction was started by adding dihydroorotate and measuring the absorption at 600 nm for 2 min. For the determination of the IC50 values, each data point was recorded in triplicate. […].

SARS-CoV-2 = SARS-CoV-2 viral replication (YFP) assay; format: cell-based; conditions: Severe acute respiratory syndrome coronavirus 2, read-out: EC50 range
[2] = human DHODH assay, read-out: IC50 range

Chain of N-terminally truncated recombinant hDHODH enzyme (Q02127 whole entry, looked up, the tested form may be a part): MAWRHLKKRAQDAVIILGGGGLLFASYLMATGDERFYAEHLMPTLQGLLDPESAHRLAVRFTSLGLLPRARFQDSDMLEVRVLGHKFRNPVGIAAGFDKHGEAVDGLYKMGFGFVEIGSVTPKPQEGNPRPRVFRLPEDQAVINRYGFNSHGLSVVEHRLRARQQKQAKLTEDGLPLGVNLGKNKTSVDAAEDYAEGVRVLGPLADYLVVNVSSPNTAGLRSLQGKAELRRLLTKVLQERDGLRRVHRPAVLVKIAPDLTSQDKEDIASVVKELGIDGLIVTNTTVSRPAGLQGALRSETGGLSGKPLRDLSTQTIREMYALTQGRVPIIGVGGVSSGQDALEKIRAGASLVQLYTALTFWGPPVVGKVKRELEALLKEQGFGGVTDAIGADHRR

Row | Structure (SMILES) | IC50 [1, 2] | EC50 (SARS-CoV-2) | IC50 [1] | IC50 ([1]; matched pair comparison, read-out: DHODH IC50)
1 | [2H]C([2H])([2H])Oc1cccc(-c2ccc(NC(=O)C3=C(C(=O)NOC)CCC3)c3c2CCC3)c1 [Example 8/1] | > 10000 nM | < 10 µM | – | –
2 | [2H]C([2H])([2H])Oc1cccc(-c2c(F)c(F)c(NC(=O)C3=C(C(=O)NOCCO)CC(F)(F)C3)c(F)c2F)c1 [4/29] | < 100 nM | < 1 µM | – | –
3 | [2H]C([2H])([2H])ONC(=O)C1=C(C(=O)Nc2c(F)c(F)c(-c3ccccc3OC([2H])([2H])[2H])c(F)c2F)COC1 [5/10] | < 100 nM | – | – | –
4 | [2H]C([2H])([2H])Oc1cccc(-c2c(F)c(F)c(NC(=O)c3sc(F)cc3C(=O)NOC)c(F)c2F)c1 [16/3] | < 100 nM | – | – | –
5 | [2H]C([2H])([2H])Oc1cccc(-c2cc(F)c(NC(=O)C3=C(C(=O)NOCC)CCC3)c(F)c2)c1 [4/9] | – | < 10 µM | 1000 to 10000 nM | –
6 | [2H]C([2H])([2H])Oc1cccc(-c2cc(F)c(NC(=O)c3ccsc3C(=O)NOC)c(F)c2F)c1 [9/5] | < 100 nM | < 1 µM | – | –
7 | [2H]C([2H])([2H])Oc1cccc(-c2cc(F)c(N(CCO)C(=O)C3=C(C(=O)NOC)CCC3)c(F)c2)c1 [Example 15, N1-(3,5-Difluoro-3′-(methoxy-d3)-[1,1′-biphenyl]-4-yl)-N1-(2-hydroxyethyl)-N2-methoxy-cyclopent-1-ene-1,2-dicarboxamide] | > 10000 nM | – | – | –
8 | [2H]C([2H])([2H])ONC(=O)C1=C(C(=O)Nc2c(F)cc(-c3cccc(OC([2H])([2H])[2H])c3)cc2F)CCC1 [4/4] | – | < 10 µM | – | –
9 | [2H]C([2H])([2H])Oc1ccccc1-c1c(F)c(F)c(NC(=O)C2=C(C(=O)NS(C)(=O)=O)CCC2)c(F)c1F [1/9] | < 100 nM | – | – | –
10 | [2H]C([2H])([2H])Oc1cccc(-c2cnc(NC(=O)C3=C(C(=O)NOC)CCC3)c(F)c2)c1 [Example 8, N^1-(3-Fluoro-5-(3-(methoxy-d3)phenyl)pyridin-2-yl)-N^2-methoxycyclopent-1-ene-1,2-dicarboxamide] | – | > 50 µM | 1000 to 10000 nM | –
11 | [2H]C([2H])([2H])Oc1cccc(-c2c(F)c(F)c(NC(=O)C3=C(C(=O)NOCCO)CCC3)c(F)c2F)c1 [4/23] | < 100 nM | < 1 µM | – | –
12 | [2H]C([2H])([2H])Oc1cccc(-c2c(F)c(F)c(NC(=O)c3cscc3C(=O)NOC)c(F)c2F)c1 [4/28] | < 100 nM | < 1 µM | – | –
13 | [2H]C([2H])([2H])Oc1cccc(-c2cc(F)c(NC(=O)C3=C(C(=O)NOC)CC(F)(F)C3)c(F)c2)c1 [4/25] | < 100 nM | < 1 µM | – | –
14 | [2H]C([2H])([2H])ONC(=O)c1sccc1C(=O)Nc1c(F)cc(-c2cccc(OC([2H])([2H])[2H])c2)cc1F [9/2] | < 100 nM | < 1 µM | – | –
15 | [2H]C([2H])([2H])Oc1cccc(-c2c(F)c(F)c(NC(=O)c3scnc3C(=O)NOC)c(F)c2F)c1 [Example 16-2, N4-methoxy-N5-(2,3,5,6-tetrafluoro-3′-(methoxy-d3)-[1,1′-biphenyl]-4-yl)thiazole-4,5-dicarboxamide] | – | – | 100 to 1000 nM | –
16 | [2H]C([2H])([2H])Oc1cccc(-c2c(F)c(F)c(NC(=O)C3=C(C(=O)NS(C)(=O)=O)COC3)c(F)c2F)c1 [1/10] | – | – | 100 to 1000 nM | –
17 | [2H]C([2H])([2H])Oc1cccc(-c2cc(F)c(N(C)C(=O)C3=C(C(=O)NOC)CCC3)c(F)c2)c1 [Example 13, N1-(3,5-Difluoro-3′-(methoxy-d3)-[1,1′-biphenyl]-4-yl)-N2-methoxy-N1-methylcyclopent-1-ene-1,2-dicarboxamide] | – | 10 to 25 µM | > 10000 nM | –
18 | [2H]C([2H])([2H])Oc1cccc(-c2cc(F)c(N(CC(=O)OC)C(=O)C3=C(C(=O)NOC)CCC3)c(F)c2)c1 [Example 14, Methyl N-(3,5-difluoro-3′-(methoxy-d3)-[1,1′-biphenyl]-4-yl)-N-(2-(methoxy-carbamoyl)cyclopent-1-ene-1-carbonyl)glycinate] | – | – | 1000 to 10000 nM | –
19 | [2H]C([2H])([2H])Oc1ccccc1-c1c(F)c(F)c(NC(=O)C2=C(C(=O)NOCCO)CSC2)c(F)c1F [6/3] | < 100 nM | < 1 µM | – | –
20 | [2H]C([2H])([2H])Oc1cccc(-c2c(F)c(F)c(NC(=O)C3=C(C(=O)NS(N)(=O)=O)CC(F)(F)C3)c(F)c2F)c1 [2/5] | < 100 nM | < 1 µM | – | –
21 | [2H]C([2H])([2H])Oc1cccc(-c2cc(F)c(NC(=O)C3=C(C(=O)NC#N)CCC3)c(F)c2)c1 [4/15] | – | 10 to 25 µM | – | –
22 | [2H]C([2H])([2H])Oc1cccc(-c2c(F)c(F)c(NC(=O)C3=C(c4nn[nH]n4)COC3)c(F)c2F)c1 [Example 3/1] | – | 25 to 50 µM | 1000 to 10000 nM | –
23 | [2H]C([2H])([2H])Oc1cccc(-c2c(F)cc(NC(=O)c3ccsc3C(=O)NOC)cc2F)c1 [9/3] | < 100 nM | < 1 µM | – | –

Row | Structure (SMILES) | IC50 [1, 2] | EC50 (SARS-CoV-2) | IC50 [1] | IC50 ([1]; matched pair comparison, read-out: DHODH IC50)
24 | [2H]C([2H])([2H])Oc1cccc(-c2c(F)c(F)c(NC(=O)c3occc3C(=O)NOC)c(F)c2F)c1 [9/8] | < 100 nM | < 1 µM | – | –
25 | [2H]C([2H])([2H])Oc1cccc(-c2cc(F)c(NC(=O)C3=C(C(=O)NS(=O)(=O)C(F)F)CCC3)c(F)c2)c1 [1/3] | – | 25 to 50 µM | 1000 to 10000 nM | –
26 | [2H]C([2H])([2H])Oc1cccc(-c2c(F)c(F)c(NC(=O)C3=C(C(=O)NS(N)(=O)=O)COC3)c(F)c2F)c1 [Example 2-1/1] | < 100 nM | 10 to 25 µM | – | –
27 | [2H]C([2H])([2H])Oc1cccc(-c2ccc(NC(=O)C3=C(C(=O)NOCCO)CCC3)c(F)c2)c1 [5/7] | > 10000 nM | – | – | –
28 | [2H]C([2H])([2H])Oc1cccc(-c2cc(F)c(NC(=O)C3=C(C(=O)NOCCF)CCC3)c(F)c2)c1 [4/2] | – | < 10 µM | 100 to 1000 nM | –
29 | [2H]C([2H])([2H])Oc1cccc(-c2cc(F)c(NC(=O)C3=C(C(=O)NOC)COC3)c(F)c2)c1 [Example 5, N^3-(3,5-Difluoro-3′-(methoxy-d3)-[1,1′-biphenyl]-4-yl)-N^4-methoxy-2,5-dihydrofuran-3,4-dicarboxamide] | – | < 10 µM | 100 to 1000 nM | –
30 | [2H]C([2H])([2H])Oc1cccc(-c2cc(F)c(NC(=O)C3=C(c4noc(=O)[nH]4)CCC3)c(F)c2)c1 [Example 3-2, N-(3,5-Difluoro-3′-(methoxy-d3)-[1,1′-biphenyl]-4-yl)-2-(5-oxo-4,5-dihydro-1,2,4-oxadiazol-3-yl)cyclopent-1-ene-1-carboxamide] | > 10000 nM | < 10 µM | – | –
31 | [2H]C([2H])([2H])Oc1cccc(-c2c(F)c(F)c(NC(=O)c3cc(F)sc3C(=O)NOC)c(F)c2F)c1 [16/2] | < 100 nM | – | – | –
32 | [2H]C([2H])([2H])Oc1cccc(-c2c(F)c(F)c(NC(=O)c3cocc3C(=O)NOC)c(F)c2F)c1 [Example 16/1] | < 100 nM | < 1 µM | – | –
33 | [2H]C([2H])([2H])ONC(=O)C1=C(C(=O)Nc2c(F)c(F)c(-c3cccc(OC([2H])(C([2H])([2H])[2H])C([2H])([2H])[2H])c3)c(F)c2F)COC1 [5/15] | < 100 nM | – | – | –
34 | [2H]C([2H])([2H])Oc1cccc(-c2cc(F)c(NC(=O)C3=C(C(=O)NOCCO)CCC3)c(F)c2)c1 [Example 4/1] | – | < 10 µM | 1000 to 10000 nM | –
35 | [2H]C([2H])([2H])Oc1ccccc1-c1c(F)c(F)c(NC(=O)C2=C(C(=O)NS(N)(=O)=O)CCC2)c(F)c1F [2/4] | < 100 nM | < 10 µM | – | –
36 | [2H]C([2H])([2H])Oc1cccc(-c2ccc(NC(=O)C3=C(C(=O)NOC)CCC3)c(F)c2)c1 [5/8] | – | – | 1000 to 10000 nM | –
37 | [2H]c1c([2H])c(-c2cccc(OC([2H])([2H])[2H])c2)c([2H])c(C([2H])([2H])[2H])c1NC(=O)C1=C(C(=O)NS(C)(=O)=O)CCC1 [1/8] | – | – | 1000 to 10000 nM | –
38 | CONC(=O)C1=C(C(=O)Nc2ccc(-c3cccc(OC)c3)cc2F)CCC1 [Example 4/33] | – | – | 1000 to 10000 nM | 2020 nM
39 | [2H]C([2H])([2H])Oc1cccc(-c2ccc(NC(=O)C3=C(C(=O)NOC)CCC3)n3ccnc23)c1 [4/8] | > 10000 nM | – | – | –
40 | [2H]C([2H])([2H])Oc1cccc(-c2ccc(NC(=O)C3=C(C(=O)NS(C)(=O)=O)CCC3)c(F)c2)c1 [1/11] | – | – | 100 to 1000 nM | –
41 | [2H]C([2H])([2H])Oc1cccc(-c2c(F)c(F)c(NC(=O)c3ncsc3C(=O)NOC)c(F)c2F)c1 [Example 16-1, N5-methoxy-N4-(2,3,5,6-tetrafluoro-3′-(methoxy-d3)-[1,1′-biphenyl]-4-yl)thiazole-4,5-dicarboxamide] | < 100 nM | – | – | –
42 | [2H]C([2H])([2H])Oc1ccccc1-c1c(F)c(F)c(NC(=O)C2=C(C(=O)NOC)COC2)c(F)c1F [5/11] | < 100 nM | – | – | –
43 | [2H]C([2H])([2H])Oc1cccc(-c2c(F)c(F)c(NC(=O)c3cscc3C(=O)NS(C)(=O)=O)c(F)c2F)c1 [1/14] | – | > 50 µM | – | –
44 | [2H]C([2H])([2H])Oc1cccc(C23CCC(NC(=O)C4=C(C(=O)NOC)CCC4)(CC2)CC3)c1 [4/24] | > 10000 nM | – | – | –
45 | [2H]C([2H])([2H])ONC(=O)C1=C(C(=O)Nc2c(F)c(F)c(-c3cc(F)cc(OC([2H])([2H])[2H])c3)c(F)c2F)COC1 [5/16] | < 100 nM | – | – | –
